Experiments:
human PPARγ2 = molecular target: T1, human PPARγ2 (Homo sapiens, UniProt P37231); experiment: PPARγ activation activity, Gal4-PPARγ2 LBD luciferase transfection assay using COS7 cells; assay type: cell-based; details: Gal4-human PPARγ2 LBD chimera, 16 hours, rosiglitazone = 100%
T1 construct: the amino acids 182 to 505 of human PPARγ2; expressed in transfected cells; host or cells: COS7 cells (African green monkey kidney)
T1 sequence (P37231 182-505): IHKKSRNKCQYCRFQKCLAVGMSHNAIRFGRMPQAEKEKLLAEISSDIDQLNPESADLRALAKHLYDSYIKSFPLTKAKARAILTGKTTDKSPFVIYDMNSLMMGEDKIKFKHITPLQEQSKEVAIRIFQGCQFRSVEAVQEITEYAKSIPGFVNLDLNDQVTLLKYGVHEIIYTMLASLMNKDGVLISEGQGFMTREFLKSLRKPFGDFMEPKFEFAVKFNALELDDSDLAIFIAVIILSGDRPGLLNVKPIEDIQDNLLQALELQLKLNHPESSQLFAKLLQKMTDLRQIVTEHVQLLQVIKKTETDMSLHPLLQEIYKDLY
Experimental: The agonistic activity of the compounds of the invention on PPARγ was measured based on the transfection assay using COS7 cells (DS Pharma Biomedical Co., Ltd., Osaka, Japan), which are the cell line derived from the kidney of the African green monkey. COS7 cells were cultured under 5% CO2 concentration, and DMEM medium containing 10% fetal bovine serum, glutamic acid, and antibiotics was used as a medium.
As an expression vector, a chimera in which DNA binding domain of Gal4, which is a yeast transcription factor, and ligand binding domain of human PPARγ2 are fused, i.e., a fused product between the amino acids 1 to 147 of Gal4 transcription factor and the amino acids 182 to 505 of human PPARγ2, was used. Furthermore, as a reporter vector, a firefly luciferase containing five copies of Gal4 recognition sequence in the promoter region was used. Plasmid transfection to the cells was performed according to a method which uses jetPEI (trade name, manufactured by Funakoshi Co., Ltd., Tokyo, Japan). Furthermore, β-galactosidase expression vector was employed as an internal standard.
After the transfection of the cells, the medium was replaced with a DMEM medium (containing 1% serum) added with the test compound, and the cells were further cultured for 16 hours. After that, the luciferase activity and β-galactosidase activity in the cell lysis solution were measured.
For the present test, dimethyl sulfoxide (DMSO) was used for dissolution and dilution of the test compounds, and during the cell treatment, the DMSO concentration in DMEM medium (containing 1% serum) was adjusted to 0.1%. As a positive compound, rosiglitazone (trade name, manufactured by ALEXIS Corporation, Switzerland) was used. The luciferase activity (%) of the test compounds (1 to 30 μmol/L) was calculated when the luciferase activity of rosiglitazone (3 to 10 μmol/L) is 100% and the luciferase activity in the absence of the test compound is 0%. The 50% effective concentration of the test compound (EC50, 50% effect concentration) was calculated by using SAS Preclinical Package Ver 5.0 (trade name, manufactured by SAS institute Japan Co., Tokyo, Japan), which is a statistical analysis program.
EC50 values of these compounds are described in Table 2. […] Under the same condition, the PPARγ activation activity of telmisartan, i.e., EC50, was 1 to 5 μM.

db/db mice = experiment: Impaired glucose tolerance improving activity in type 2 diabetes model mouse; assay type: in vivo; details: oral once a day, Example 23 10 mg/kg, Example 21 30 mg/kg, telmisartan 30 mg/kg; for plasma glucose concentration: 2 weeks after initiation, FIG. 2; for AUC of plasma glucose in the glucose tolerance test (120 minutes after glucose solution): 4 weeks, glucose 2 g/kg, FIG. 3
Experimental: By using 7-week old db/db mice, the body weight and the plasma glucose concentration of each mouse were measured before administration of the medicine, and group separation was performed by blocking assignment so that there was no variation of these values between respective groups. Solvent control (0.5% MC), 5 mg/kg rosiglitazone, 30 mg/kg telmisartan, 10 mg/kg of the compound of Example 23, and 30 mg/kg of the compound of Example 21 were orally administered iteratively for 4 weeks, once a day. Blood collecting was performed from the orbital vein plexus, and the plasma glucose concentration was measured at 2 weeks after the initiation of the administration. Furthermore, oral glucose tolerance test was performed at 4 weeks after the initiation of the administration. Specifically, the mouse was fasted for 24 hours from the night before the glucose tolerance test, and then a glucose solution was orally administered at a dose of 2 g/kg. The blood was collected from the tail vein of the mouse at 15, 30, 60, and 120 minutes after the administration of the glucose solution, and the concentration of the plasma glucose was measured. The area surrounded with the measured plasma glucose concentration and the time was taken as the area under the curve (AUC), and AUC for 120 minutes after administration of the glucose solution was estimated from the trapezoidal method.
Vehicle, Rosiglitazone, Telmisartan, Compound 23, and Compound 21 in FIGS. 2 and 3 represent solvent control, rosiglitazone, telmisartan, the compound of Example 23, and the compound of Example 21, respectively. The vertical axis of FIG. 2 represents the plasma glucose concentration. The data in FIG. 2 represents individual values and average values of each individual. The vertical axis of FIG. 3 represents the area under the curve surrounded with the plasma glucose concentration and the time (for 120 minutes after administration of the glucose solution). The data in FIG. 3 represents individual values and average values of each individual. […] Such activities were not confirmed for the telmisartan administration group.

| SMILES | EC50 (human PPARγ2) [µM] | plasma glucose concentration (db/db mice) | AUC of plasma glucose in the glucose tolerance test (120 minutes after glucose solution) (db/db mice) |
| --- | --- | --- | --- |
| CCCCc1nc(C(C)C)n(-c2ncc(OCC)cn2)c(=O)c1Cc1ccc(-c2ccccc2-c2noc(=O)[nH]2)nc1 [Example 21, 3-{2-{5-{[4-butyl-1-(5-ethoxypyrimidin-2-yl)-2-isopropyl-6-oxo-1,6-dihydropyrimidin-5-yl]methyl}pyridin-2-yl}phenyl}-1,2,4-oxadiazol-5(4H)-one] | 0.45 | remarkable lowering activity of the plasma glucose concentration | remarkably lowering AUC |
| CCCCc1nc(C2CC2)n(-c2ncc(OCC)cn2)c(=O)c1Cc1ccc(-c2ccccc2-c2noc(=O)[nH]2)nc1 [Example 23, 3-{2-{5-{[4-butyl-2-cyclopropyl-1-(5-ethoxypyrimidin-2-yl)-6-oxo-1,6-dihydropyrimidin-5-yl]methyl}pyridin-2-yl}phenyl}-1,2,4-oxadiazol-5(4H)-one] | 0.76 | remarkable lowering activity of the plasma glucose concentration | remarkably lowering AUC |
